In one assay the target is T1, HDAC6 (Homo sapiens, UniProt Q9UBN7).
T1 sequence (Q9UBN7 1-1215): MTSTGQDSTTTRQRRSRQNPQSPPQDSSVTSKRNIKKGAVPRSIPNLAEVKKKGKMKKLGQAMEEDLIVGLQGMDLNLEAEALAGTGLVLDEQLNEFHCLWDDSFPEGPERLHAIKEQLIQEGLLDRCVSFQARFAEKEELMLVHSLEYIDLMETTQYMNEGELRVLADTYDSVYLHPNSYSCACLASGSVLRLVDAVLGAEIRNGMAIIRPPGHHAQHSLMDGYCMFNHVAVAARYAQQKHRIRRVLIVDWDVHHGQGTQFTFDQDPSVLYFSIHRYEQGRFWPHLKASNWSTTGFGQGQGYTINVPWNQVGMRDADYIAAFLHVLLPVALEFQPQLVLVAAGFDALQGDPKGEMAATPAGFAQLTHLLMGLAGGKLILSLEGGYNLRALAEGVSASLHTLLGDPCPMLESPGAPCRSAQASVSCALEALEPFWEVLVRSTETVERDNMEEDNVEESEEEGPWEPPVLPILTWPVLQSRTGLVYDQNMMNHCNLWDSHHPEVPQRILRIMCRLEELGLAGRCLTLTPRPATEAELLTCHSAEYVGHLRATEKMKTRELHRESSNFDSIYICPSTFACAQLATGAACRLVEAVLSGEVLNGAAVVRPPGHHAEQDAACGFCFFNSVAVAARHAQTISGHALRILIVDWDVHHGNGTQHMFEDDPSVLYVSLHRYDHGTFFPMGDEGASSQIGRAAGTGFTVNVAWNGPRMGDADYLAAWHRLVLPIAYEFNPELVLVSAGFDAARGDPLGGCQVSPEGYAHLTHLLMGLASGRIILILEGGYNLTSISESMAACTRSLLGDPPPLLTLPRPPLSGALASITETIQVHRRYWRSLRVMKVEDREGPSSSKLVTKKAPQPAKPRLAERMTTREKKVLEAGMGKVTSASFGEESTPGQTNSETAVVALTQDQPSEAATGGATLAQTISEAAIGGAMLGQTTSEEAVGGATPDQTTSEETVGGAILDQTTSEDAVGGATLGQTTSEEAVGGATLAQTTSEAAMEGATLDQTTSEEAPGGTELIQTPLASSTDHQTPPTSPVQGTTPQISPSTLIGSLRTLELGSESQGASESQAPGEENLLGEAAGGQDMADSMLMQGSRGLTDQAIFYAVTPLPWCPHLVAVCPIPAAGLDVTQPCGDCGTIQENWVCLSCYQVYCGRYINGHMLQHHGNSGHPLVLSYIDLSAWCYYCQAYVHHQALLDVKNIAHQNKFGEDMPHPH
In words: In vitro HDAC enzymatic inhibition assay (HDAC kit, fluorescence).

The next assay has as its target HDAC1 (Homo sapiens, UniProt Q13547). Described as above.
The subject of assay [1] is K562, human erythroleukemia line. Nature of the assay: Anti-proliferation MTT / CCK-8 assay. The settings on record: K562, read-out: IC50 proliferation K562, heading: IC50 proliferation K562, 72 h, mean ± SEM of three independent assays. The class given is cell-based. The source says: (§1) K562, human erythroleukemia line; HL-60, human leukemic cell line; Jurkat, human leukemic T cell line; CCRF-CEM, human leukemic lymphoblasts; U937, human histiocytic lymphoma; HCT-116, human colorectal cancer cell line; A549, human lung cancer cell line; Hep G2, human hepatoma cell lines; MDA-MB-231, MCF-7, human breast cancer cell line; 4T1, mouse breast cancer cell line; PC12, pheochromocytoma of the rat adrenal medulla; HUVEC, human umbilical vein endothelial cells. These cells were purchased from the National Collection of Authenticated Cell Cultures (Shanghai, China).
(§2) The concentration of the cell suspension was adjusted to the appropriate concentration with fresh medium (the number of cells was about 30–40% of the bottom area of the well plate). 150 μL (about 1 × 10^4 cells) of prepared cell suspension containing different concentrations of NBU-2 were added to a 96-microtiter plate, and 3 replicate wells were set up for each concentration. If the cells were adherent, the cells were first allowed to grow overnight in 96 microtiter plates until the cells were adherent, and then the old medium was replaced with the drug-containing medium. The plates were incubated in a 5% CO2 cell incubator at 37 °C for 72 h. Then, 15 μL of MTT solution was added to each well, 100 μL of 10% SDS solution (pH = 2) was added after 4 h, and the plate was incubated at 37 °C with 5% CO2 overnight to fully dissolve the crystals. Finally, the absorbance value of each well was measured at 570 and 655 nm.
(§3) The cells (about 1 × 10^4 cells) were treated with different concentrations of NBU-2 and DMSO control for different times (24 h, 48 h, 72 h), with 3 replicate wells for each concentration. Incubate at 37 °C in a 5% CO2 cell culture incubator. After a predetermined time, 10 μL of CCK-8 was added to each well and incubated for 2 h. The absorbance was measured at the excitation wavelength of 450 nm.
In general terms: Tetrazolium assays rely on reduction of a dye to a coloured formazan, in cell work by metabolically active cells.

For assay [2], the system named is HCT-116, human colorectal cancer cell line. In words: Anti-proliferation MTT / CCK-8 assay. The settings on record: HCT-116, read-out: IC50 proliferation HCT-116, heading: IC50 proliferation HCT-116, 72 h, mean ± SEM of three independent assays. The class given is cell-based.
Source text: as §1, §2, §3

Assay [3] has as its system A549, human lung cancer cell line. Nature of the assay: Anti-proliferation MTT / CCK-8 assay. The class given is cell-based. The settings on record: A549, read-out: IC50 proliferation A549, heading: IC50 proliferation A549, 72 h, mean ± SEM of three independent assays.
Source text: as §1, §2, §3

Assay [4] relates to 4T1, mouse breast cancer cell line. Nature of the assay: Anti-proliferation MTT / CCK-8 assay. It is filed as cell-based. The settings on record: 72 h.
Source text: as §1, §2, §3

In assay [5] the test system is Hep G2, human hepatoma cell lines. In words: Anti-proliferation MTT / CCK-8 assay. The class given is cell-based. The settings on record: HepG2, read-out: IC50 proliferation HepG2, heading: IC50 proliferation HepG2, 72 h, mean ± SEM of three independent assays.
Source text: as §1, §2, §3

Assay [6] concerns U937, human histiocytic lymphoma. In words: Anti-proliferation MTT / CCK-8 assay. The settings on record: U-937, read-out: IC50 proliferation U937, heading: IC50 proliferation U937, 72 h, mean ± SEM of three independent assays. It is filed as cell-based.
Source text: as §1, §2, §3

The test system of assay [7] is PC12, pheochromocytoma of the rat adrenal medulla. In words: Anti-proliferation MTT / CCK-8 assay. The settings on record: PC-12, 72 h. The class given is cell-based.
Source text: as §1, §2, §3

In assay [8] the test system is HL-60, human leukemic cell line. Nature of the assay: Anti-proliferation MTT / CCK-8 assay. The settings on record: HL-60, read-out: IC50 proliferation HL-60, heading: IC50 proliferation HL-60, 72 h, mean ± SEM of three independent assays. The class given is cell-based.
Source text: as §1, §2, §3

The test system of assay [9] is CCRF-CEM, human leukemic lymphoblasts. Nature of the assay: Anti-proliferation MTT / CCK-8 assay. It is filed as cell-based. The settings on record: read-out: IC50 proliferation CCRF-CEM, heading: IC50 proliferation CCRF-CEM, 72 h, mean ± SEM of three independent assays.
Source text: as §1, §2, §3

Assay [10] concerns MDA-MB-231, human breast cancer cell line. In words: Anti-proliferation MTT / CCK-8 assay. The settings on record: MDA-MB-231, read-out: IC50 proliferation MDA-MB-231, heading: IC50 proliferation MDA-MB-231, 72 h, mean ± SEM of three independent assays. The class given is cell-based.
Source text: as §1, §2, §3

Assay [11] has as its system Jurkat, human leukemic T cell line. Nature of the assay: Anti-proliferation MTT / CCK-8 assay. It is filed as cell-based. The settings on record: Homo sapiens, Jurkat, 72 h. The protocol:
These cells were purchased from the National Collection of Authenticated Cell Cultures (Shanghai, China).
as §2, with “crystals.” for “crystals. Finally, the absorbance value of each well was measured at 570 and 655 nm.”
as §3

Each structure is given as a SMILES string. Where two headings read alike, the source gives them in different places.

HDAC1, sequence (Q13547 whole entry): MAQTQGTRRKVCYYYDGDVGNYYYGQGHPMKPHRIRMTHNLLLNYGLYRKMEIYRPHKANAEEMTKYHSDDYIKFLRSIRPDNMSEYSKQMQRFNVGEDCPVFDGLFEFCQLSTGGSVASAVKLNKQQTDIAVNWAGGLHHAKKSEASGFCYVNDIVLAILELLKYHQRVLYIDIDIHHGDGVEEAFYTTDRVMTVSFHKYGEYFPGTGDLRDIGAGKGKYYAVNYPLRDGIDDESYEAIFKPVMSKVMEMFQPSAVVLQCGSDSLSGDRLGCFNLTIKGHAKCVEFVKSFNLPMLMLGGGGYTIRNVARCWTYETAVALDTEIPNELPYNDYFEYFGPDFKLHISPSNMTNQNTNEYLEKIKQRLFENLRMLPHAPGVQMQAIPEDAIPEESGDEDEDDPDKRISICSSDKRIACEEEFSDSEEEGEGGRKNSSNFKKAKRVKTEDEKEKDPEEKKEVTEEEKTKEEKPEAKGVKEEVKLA
Experimental for HDAC1: (§4) Enzymatic assays were performed by Shanghai ChemPartner according to the HDAC kit protocol. […] Fluorescence was recorded at 355 nm excitation and 460 nm emission on a Synergy MX reader (PerkinElmer Life Sciences, Boston, MA, USA). IC50 values were derived from dose–response curves.
Experimental for HDAC6: as §4

With `O=C(NO)c1ccc(CNc2ccnc3ccccc23)cc1` [NBU-1, N-hydroxy-4-((quinolin-4-ylamino)methyl)benzamide], the figures for the IC50 on HDAC6 and against HDAC1 were 114 ± 28 nM and 242 ± 15 nM, respectively.

For `Nc1cc(F)ccc1NC(=O)c1ccc(CNC(=O)/C=C/c2cccnc2)cc1` [Chidamide, reference compound], the IC50 in assay [1] was 1650 ± 640 nM; in [2] it was 3860 ± 1090 nM; in assay [3] it was more than 50000 nM; in assay [4], more than 50 nM; in assay [5], 500 ± 20 nM; in [6], 1310 ± 380 nM. In addition, the IC50 in assay [7] is more than 50 nM; in [8], 860 ± 70 nM; in assay [9], 1660 ± 340 nM; in [10] it was 9750 ± 1780 nM; in assay [11] (read-out: IC50 against Jurkat cells), 2230 nM; in assay [11] (read-out: IC50 proliferation Jurkat, heading: IC50 proliferation Jurkat, mean ± SEM of three independent assays), 2230 ± 220 nM.

The record behind these values is publication PMC12651750 (Cells, 2025).
